# Where a name gives a salt, the structure may show the parent alone.
# Assays:
# [1] = test system: SW620 human colon cancer cells; experiment: SW620 Cell Viability Assay; assay type: cell-based; settings: SW-620, 96 h, 4 days incubation, CellTiter-Glo Luminescent Cell Viability Assay, read-out: Cellular EC50 (μM) SW620
# Protocol: SW620 Cell Viability Assay
# 1. Cell Plate Preparation: SW620 human colon cancer cells (known to express DYRK1B), obtained from ATCC, were seeded into 96-well plates at 3×10^3 cells/well in 50 μL of media. • Harvested the required number of cells (counts & viability determined by Guava Viacount). • Centrifuge cells to pellet and removed supernant. • Resuspended in growth media (50 μL/well) & pipetted thoroughly to break up clumps. • Setup for ˜100 wells/plate, therefore, VT=5 mL/plate @ […]. 1A. Some cells (S—) were allowed to attach for 24 hrs, serum starved for 48 hrs, and then followed with drug treatments. Test compound solution were prepared in regular corresponding media supplemented with serum. 2. Test Compound Preparation: Test compounds were solubilized in either DMSO or media and prepared at various stock concentrations. • All compounds were incubated at 37° C. for 30 minutes and vortexed. • (5 mM stocks of test compound were prepared for non-soluble compounds)
# • The 10 mM test compound stock was diluted to a concentration of 100× the final Cmax concentration. • Then the test compound stock is diluted 50-fold in media and/or second compound for a final Cmax concentration in the test compound plate. • The Cmax in the test compound plate (2% DMSO) is 2-fold higher than the final Cmax in the cell plate (60 uL titrations were 1:3). 4. Viability Assay: This assay was performed as follows: • Transfer 50 μL of test compound solution per well from the test compound plate onto the cell plate prepared in Step #1. • Mix the plate with treated cells by pipetting up and down three times with 200 μL multi-channel pipette. • Incubate the cells in 5% CO2 incubator @ 37° C. for 4 days. • Run the CellTiter-Glo™ Luminescent Cell Viability Assay.
# The results of this assay, given as EC50 values, indicate the concentration of test compound that inhibits tumor cell proliferation by 50%.
# Human DYRK1A = target: T1, Human DYRK1A (Homo sapiens, UniProt Q13627); experiment: DYRK1A Kinase TR-FRET (IMAP-Tb) Assay; assay type: biochemical; settings: TR-FRET (IMAP-Tb); ATP 70 μM; 37° C., 60 minutes; average of multiple runs; read-out: Enzyme IC50 (μM) DYRK1A
# T1 construct: purchased Invitrogen PV3997
# Human DYRK1B = target: T2, Human DYRK1B (Homo sapiens, UniProt Q9Y463); experiment: DYRK1B Kinase TR-FRET (IMAP-Tb) Assay; assay type: biochemical; settings: TR-FRET (IMAP-Tb); ATP 70 μM; 37° C., 60 minutes; average of multiple runs; read-out: Enzyme IC50 (μM) DYRK1B
# T2 construct: purchased Invitrogen PR8350B (former PV4649)
# T2 sequence (Q9Y463 whole entry): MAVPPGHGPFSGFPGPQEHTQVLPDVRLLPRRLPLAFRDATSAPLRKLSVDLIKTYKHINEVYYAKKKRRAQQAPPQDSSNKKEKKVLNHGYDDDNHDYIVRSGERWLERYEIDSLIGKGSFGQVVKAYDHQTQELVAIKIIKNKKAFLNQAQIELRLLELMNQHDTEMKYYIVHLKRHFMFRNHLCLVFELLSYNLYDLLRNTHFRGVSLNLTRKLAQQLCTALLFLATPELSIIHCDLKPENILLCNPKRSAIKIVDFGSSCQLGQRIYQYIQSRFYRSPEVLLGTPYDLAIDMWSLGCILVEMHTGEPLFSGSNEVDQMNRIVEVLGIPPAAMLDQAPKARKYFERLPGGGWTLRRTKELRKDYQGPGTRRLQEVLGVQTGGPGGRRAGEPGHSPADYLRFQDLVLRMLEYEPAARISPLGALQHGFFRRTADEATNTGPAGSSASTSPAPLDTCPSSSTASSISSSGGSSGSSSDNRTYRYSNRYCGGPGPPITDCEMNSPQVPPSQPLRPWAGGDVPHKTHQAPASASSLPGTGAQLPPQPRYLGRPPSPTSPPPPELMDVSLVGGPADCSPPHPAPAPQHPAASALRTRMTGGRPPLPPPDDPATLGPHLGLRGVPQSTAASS
smiles,measurement,setting,value
"COc1cc2[nH]c(=O)c(C(=O)Nc3cc(C(=O)NC(CCN)c4cccc(Cl)c4)ccc3C)cc2cn1 (stereo not drawn) [Example 65, 7-Methoxy-2-oxo-1,2-dihydro-[1,6]naphthyridine-3-carboxylic acid {5-[3-amino-1-(3-chloro-phenyl)-propylcarbamoyl]-2-methyl-phenyl}-amide; hydrochloride]",EC50,[1],0.915 µM
same,IC50,Human DYRK1A,0.0974 µM
same,IC50,Human DYRK1B,0.21 µM

# Reference: patent US20120184562A1, “1,6- AND 1,8-NAPHTHYRIDINES” (priority 2011, published 2012)
